Reference: ChEMBL document CHEMBL1130682, “A concise synthesis and in vitro cytotoxicity of new labdane diterpenes” (Bioorg Med Chem Lett, 1998)
Converted amounts (≈) assume the structure as drawn.

Legend:
Format in all cases: functional, cell-based
P388 = test: In vitro cytotoxicity of compound was measured on murine lymphocytic leukemia (P-388) cells.; conditions: Mus musculus
B16 = test: In vitro cytotoxicity of compound was measured on murine melanoma (B16) cells.; conditions: Mus musculus
SNU1 = test: In vitro cytotoxicity of compound was measured on human gastric adenocarcinoma (SNU-1) cells.

Row | SMILES | IC50 (P388) [µg/mL] | IC50 (B16) [µg/mL] | IC50 (SNU1) [µg/mL]
1 | C=C1CC[C@H]2C(C)(C)CCC[C@]2(C)[C@H]1CC(O)c1ccoc1 (some centres not stated) | 3.6 (≈ 11.9 µM) | 47.2 (≈ 156 µM) | 3.9 (≈ 12.9 µM)
2 | C=C1CC[C@H]2C(C)(C)CCC[C@]2(C)[C@H]1C/C=C(\CO)CCO | 6.3 (≈ 20.6 µM) | 28.9 (≈ 94.3 µM) | 8.6 (≈ 28.1 µM)
3 | C=C1CC[C@H]2C(C)(C)CCC[C@]2(C)[C@H]1C/C=C1/CCOC1=O | 6.7 (≈ 22.2 µM) | 7.5 (≈ 24.8 µM) | 19.2 (≈ 63.5 µM)
4 | C=C1CC[C@H]2C(C)(C)CCC[C@]2(C)[C@H]1C/C=C(/C=O)CC=O | 4.1 (≈ 13.6 µM) | 41.2 (≈ 136 µM) | 12 (≈ 39.7 µM)
5 | CC(=O)O[C@]1(C)CC[C@H]2C(C)(C)CCC[C@]2(C)[C@H]1CC=O | 6.9 (≈ 23.4 µM) | 31.9 (≈ 108 µM) | 4.8 (≈ 16.3 µM)
6 | CC1(C)CCC[C@@]2(C)[C@H]1CCC1(CO1)[C@@H]2C/C=C1/CCOC1=O (some centres not stated) | 12.3 (≈ 38.6 µM) | 84.5 (≈ 265 µM) | 15.7 (≈ 49.3 µM)
7 | CC(=O)O[C@]1(C)CC[C@H]2C(C)(C)CCC[C@]2(C)[C@H]1C/C=C1/CCOC1=O | 7.8 (≈ 21.5 µM) | 11.3 (≈ 31.2 µM) | 12.3 (≈ 33.9 µM)
8 | C=C1CC[C@H]2C(C)(C)CCC[C@]2(C)[C@H]1CC=O | 0.16 (≈ 0.683 µM) | 30.8 (≈ 131 µM) | 3.9 (≈ 16.6 µM)
9 | C=C1[C@H](O)C[C@H]2C(C)(C)CCC[C@]2(C)[C@H]1/C=C/c1ccoc1 | 10.3 (≈ 34.3 µM) | 27.3 (≈ 90.9 µM) | 4.8 (≈ 16 µM)
10 | C=C1CC[C@H]2C(C)(C)CCC[C@]2(C)[C@H]1/C=C/c1ccoc1 [CORONARIN E] | 10 (≈ 35.2 µM) | 18.8 (≈ 66.1 µM) | 8 (≈ 28.1 µM)
11 | COc1cccc2c1C(=O)c1c(O)c3c(c(O)c1C2=O)C[C@@](O)(C(=O)CO)C[C@@H]3O[C@H]1C[C@H](N)[C@H](O)[C@H](C)O1 [DOXORUBICIN] | 0.09 (≈ 0.166 µM) |  | 2.15 (≈ 3.96 µM)
12 | CO[C@@]12[C@H](COC(N)=O)C3=C(C(=O)C(C)=C(N)C3=O)N1C[C@@H]1N[C@@H]12 [MITOMYCIN] | 0.06 (≈ 0.179 µM) |  | 2.32 (≈ 6.94 µM)
13 | C=C[C@](C)(O)CC[C@@H]1[C@@]2(C)CCCC(C)(C)[C@@H]2CC[C@@]1(C)O [SCLAREOL] | 10.1 (≈ 32.7 µM) | 28 (≈ 90.8 µM) | 11.9 (≈ 38.6 µM)
